# In EP0471756B1, “SACCHARIN DERIVATIVES USEFUL AS PROTEOLYTIC ENZYME INHIBITORS AND PREPARATION THEREOF” (priority 1989, dated 1990):
# Molecular target: T1, human leukocyte elastase (HLE) (Homo sapiens, UniProt P08246)
# T1 sequence (P08246 30-267): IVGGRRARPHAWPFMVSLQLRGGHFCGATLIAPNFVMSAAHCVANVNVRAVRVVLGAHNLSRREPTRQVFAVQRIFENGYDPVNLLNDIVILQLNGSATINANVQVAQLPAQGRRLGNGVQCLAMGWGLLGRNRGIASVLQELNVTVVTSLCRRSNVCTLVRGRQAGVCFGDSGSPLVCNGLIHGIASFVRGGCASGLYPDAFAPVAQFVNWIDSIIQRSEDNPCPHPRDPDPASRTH
# Assay: Inactivation of human leukocyte elastase: kon measured, Ki* = koff/kon calculated
# Type: biochemical
# Settings: Elastase; Ki* = koff/kon, not a truly reversible inhibition constant
# Protocol: Thus, instead of measuring a Ki, a Ki* is calculated which is defined as the ratio of the koff/kon, the rate of reactivation of the enzyme to the rate of inactivation of the enzyme. The values of koff and kon are measured and Ki* is then calculated.
# The rate of inactivation, kon, of enzymatic activity was determined for the compounds tested by measuring the enzyme activity of an aliquot of the respective enzyme as a function of time after addition of the test compound. […] The rate of inactivation is then equal to kon =(kobs)/([I]) [formula] where [I] is the concentration of the inhibiting compound.
# The reactivation constant, koff, is similarly determined and the inhibition constant, Ki*, is then calculated as Ki * = koff /kon [formula]
row,SMILES,Ki [nM]
1,O=C1c2ccccc2S(=O)(=O)N1Cn1nnn(-c2ccccc2)c1=O [Example 30BH],> 10000
2,"O=C1c2ccccc2S(=O)(=O)N1CSc1ncccn1 [Example 30F, 2-(2-pyrimidylthiomethyl)saccharin]",> 85000
3,"CC(=O)Nc1ccc2c(c1)C(=O)N(CSc1nnnn1-c1ccccc1)S2(=O)=O [Example 37, 5-acetylamino-2-(1-phenyl-1H-tetrazol-5-ylthiomethyl)saccharin]",> 90000
4,Cn1cnnc1SCN1C(=O)c2ccccc2S1(=O)=O [Example 30AC],246
5,CCOc1cccc2c1C(=O)N(CSc1nnnn1-c1ccccc1)S2(=O)=O [Example 30AT],3
6,CC(C)Oc1cccc2c1C(=O)N(CSc1nnnn1-c1ccccc1)S2(=O)=O [Example 30AU],17.5

# Same assay, conditions: Elastase; rate of inactivation kon = kobs/[I]; value is kon x 10^-3
row,SMILES,10^-3 x kon [M^-1 sec^-1]
1,O=C1c2ccccc2S(=O)(=O)N1CSc1nc(-c2ccccc2)ns1 [Example 30AF],4.2
2,O=C1c2ccccc2C(=O)N1CN1C(=O)c2ccccc2S1(=O)=O [Example 30BF],0.02

# Same assay, conditions: Elastase; rate of inactivation kon = kobs/[I]; value is kon x 10^-3; read-out: 10^-3 x kon
row,SMILES,kinact/KI [M⁻¹ s⁻¹]
1,O=C1c2ccccc2S(=O)(=O)N1CSc1nnnn1CCN1CCOCC1 [Example 30BG],1700
2,CC(C)c1cccc2c1C(=O)N(CSc1nnnn1C)S2(=O)=O [Example 30AN],19000
3,"COC(=O)C(Sc1nnnn1-c1ccccc1)N1C(=O)c2ccccc2S1(=O)=O (centres unmarked) [Example 17, methyl 2-(1-phenyl-1H-tetrazol-5-ylthio)2-(2-saccharinyl)acetate]",2900
4,"O=C1c2c(Br)cccc2S(=O)(=O)N1CCl [Example 21, 2-chloromethyl-4-bromosaccharin]",950000
5,Cc1nnc(SCN2C(=O)c3ccccc3S2(=O)=O)s1 [Example 30AB],2800
6,"Cc1ccc(C)c2c1C(=O)N(CCl)S2(=O)=O [Example 29, 2-chloromethyl-4,7-dimethylsaccharin]",1100
7,"CCC(CC)c1cccc2c1C(=O)N(CCl)S2(=O)=O [Example 22C, 2-chloromethyl-4-(3-pentyl)saccharin]",105000
8,"O=C1c2ccccc2S(=O)(=O)N1CSc1nnc(SCCN2CCOCC2)s1 [Example 33, 2-(5-[2-(4-morpholinyl)ethylthio]-1,3,4-thiadiazol-2-ylthiomethyl)saccharin]",3600
9,"O=C(O)CCC(=O)Nc1cccc(-n2nnnc2SCN2C(=O)c3ccccc3S2(=O)=O)c1 [Example 35, 2-[1-(3-succinoylaminophenyl)-1H-tetrazol-5-ylthiomethyl]saccharin]",3600
10,"COc1cccc2c1C(=O)N(CCl)S2(=O)=O [Example 22A, 2-chloromethyl-4-methoxysaccharin]",12400
11,O=C1c2ccccc2S(=O)(=O)N1CSc1nc2ccc([N+](=O)[O-])cc2o1 [Example 30BE],7400
12,CCOC(=O)Cn1nnnc1SCN1C(=O)c2ccccc2S1(=O)=O [Example 30AP],1300
13,Cn1cnnc1SCN1C(=O)c2ccccc2S1(=O)=O [Example 30AC],190
14,O=C1c2ccccc2S(=O)(=O)N1CSc1nnc2ccccn12 [Example 30N],250
15,Cc1nnc(SCN2C(=O)c3c(C(C)C)cccc3S2(=O)=O)s1 [Example 30AM],12300
16,O=C1c2ccc([N+](=O)[O-])cc2S(=O)(=O)N1CSc1nnnn1-c1ccccc1 [Example 31C],3400
17,CCOc1ccc(OCCOCCOC)c2c1C(=O)N(CSc1nnnn1-c1ccccc1)S2(=O)=O [Example 30L],6500
18,"O=C1c2ccccc2S(=O)(=O)N1CSc1nnc(S)s1 [Example 30AH, 2-(5-mercapto-1,3,4-thiadiazol-2-ylthiomethyl)saccharin]",1100
19,COC(=O)c1cn(-c2ccccc2)c(SCN2C(=O)c3ccccc3S2(=O)=O)n1 [Example 30AR],300
20,CCc1cccc2c1C(=O)N(CSc1nnnn1CC(=O)N(C)C)S2(=O)=O [Example 30AV],7600
21,O=C(O)c1ccc(-n2nnnc2SCN2C(=O)c3ccccc3S2(=O)=O)cc1 [Example 30D],800
22,O=C(O)c1cccc(-n2nnn(CN3C(=O)c4ccccc4S3(=O)=O)c2=S)c1 [Example 30-O],30

row,SMILES,kinact/KI [M⁻¹ s⁻¹]
1,"O=C1c2ccccc2S(=O)(=O)N1CF [Example 27, 2-fluoromethylsaccharin]",7500
2,CC(C)c1cccc2c1C(=O)N(Cn1nnn(-c3ccccc3)c1=S)S2(=O)=O [Example 30AJ],1800
3,CCOc1cccc2c1C(=O)N(CSc1nnnn1CC(=O)N(C)C)S2(=O)=O [Example 30AX],7500
4,"CN(C)CCSc1nnc(SCN2C(=O)c3ccccc3S2(=O)=O)s1 [Example 33B, 2-(5-[2-(N,N-dimethylamino)ethylthio]-1,3,4-thiadiazol-2-ylthiomethyl)saccharin]",4000
5,"O=C1c2ccccc2S(=O)(=O)N1CSc1nnnn1CCO [Example 30AQ, 2-[1-(2-hydroxyethyl)-1H-tetrazol-5-ylthiomethyl]saccharin]",900
6,CN(C)C(=O)Cn1nnnc1SCN1C(=O)c2ccccc2S1(=O)=O [Example 30AS],1700
7,"O=C1c2ccccc2S(=O)(=O)N1/C=C/CSc1nnnn1-c1ccccc1 [Example 38, trans-2-[3-(1-phenyl-1H-tetrazol-5-ylthio)-1-propenyl]saccharin]",43000
8,CSc1nn(CN2C(=O)c3ccccc3S2(=O)=O)c(=S)s1 [Example 30AD],7000
9,CCc1cccc2c1C(=O)N(CSc1nnnn1CCN1CCOCC1)S2(=O)=O [Example 30J],14000
10,CCOc1cccc2c1C(=O)N(CSc1nnnn1-c1ccccc1)S2(=O)=O [Example 30AT],45300
11,O=C1C=Cc2ccc(OCN3C(=O)c4ccccc4S3(=O)=O)c3cccc1c23 [Example 30G],9300
12,"CCCCCCC(=O)Nc1cccc(-n2nnnc2SCN2C(=O)c3ccccc3S2(=O)=O)c1 [Example 7, 2-[1-(3-heptanamidophenyl)-1H-tetrazol-5-ylthiomethyl]saccharin]",5200
13,O=C1c2ccccc2S(=O)(=O)N1Cn1nnn(-c2cccnc2)c1=S [Example 30R],2300
14,"Nc1cccc(-n2nnnc2SCN2C(=O)c3ccccc3S2(=O)=O)c1 [Example 30C, 2-[1-(3-aminophenyl)-1H-tetrazol-5-ylthiomethyl]saccharin]",2500
15,"O=C1c2ccccc2S(=O)(=O)N1CSc1nnc(SCCN2CCCCC2)s1 [Example 33C, 2-(5-[2-(1-piperidinyl)ethylthio]-1,3,4-thiadiazol-2-ylthiomethyl) saccharin]",200
16,COCCOCCOc1ccc(OC)c2c1S(=O)(=O)N(CSc1nnnn1-c1ccccc1)C2=O [Example 30M],1000
17,CC(C)Oc1cccc2c1C(=O)N(CSc1nnnn1-c1ccccc1)S2(=O)=O [Example 30AU],8900
18,Cn1nnc(SCN2C(=O)c3ccccc3S2(=O)=O)n1 [Example 30X],550
19,"O=C1c2ccccc2S(=O)(=O)N1CS(=O)(=O)c1c(Cl)cccc1Cl [Example 32A, 2-(2,6-dichlorophenylsulfonylmethyl)saccharin]",600
20,O=C1c2ccccc2S(=O)(=O)N1CSc1nc2ccc([N+](=O)[O-])cc2s1 [Example 30BD],11700
21,COc1ccc2c(c1OC)C(=O)N(CCl)S2(=O)=O [Example 22F],20000
22,O=C1c2ccccc2S(=O)(=O)N1CSc1nncn1-c1ccccc1 [Example 30I],450

# Same assay, conditions: read-out: 10^-3 x kon
row,SMILES,kinact/KI [M⁻¹ s⁻¹]
1,"O=C1c2cc([N+](=O)[O-])ccc2S(=O)(=O)N1CSc1nnnn1-c1ccccc1 [Example 11, 5-nitro-2-(1-phenyl-1H-tetrazol-5-ylthiomethyl)saccharin]",4600
